The record followed here is PubChem BioAssay (NCI).

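Five concentrations, 48 hours, 96-well plates. Abbreviation: GI50, concentration required for 50% inhibition of growth. At the TGI there is no net growth.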

Some test systems named below: OVCAR-4 ovarian; SK-MEL-2 melanoma; SF-268 CNS; HT29 colon; UACC-257 melanoma; HCC-2998 colon; IGROV1 ovarian; NCI-H23 lung; K-562 leukemia; COLO 205 colon.
What all share (experiment): NCI anticancer screen, dose series, 48 h

Regarding `CC(=O)NC1C(CO)O[C@@H]2OC(C)(C)O[C@H]12` (some centres not stated), the TGI in the assay on OVCAR-4 ovarian, in the assay with SK-MEL-2 melanoma, in the assay with SF-268 CNS, in the assay with HT29 colon, in the assay on UACC-257 melanoma and with HCC-2998 colon was over 100 µM in each case. For the same molecule, the TGI in the assay with IGROV1 ovarian and in the assay on NCI-H23 lung was over 100 µM throughout.
As to `NC(N)=N/N=C/c1c(-c2ccc([N+](=O)[O-])cc2)nc2sccn12`, the TGI was determined as 2.97 µM with OVCAR-4 ovarian; 3.33 µM in the assay on SK-MEL-2 melanoma; 2.84 µM with K-562 leukemia; 2.95 µM with HT29 colon; 1.96 µM in the assay with COLO 205 colon; 3.65 µM in the assay on UACC-257 melanoma. Besides, the TGI in the assay with HCC-2998 colon was 2.73 µM; with IGROV1 ovarian, 36.4 µM; in the assay on NCI-H23 lung, 3.46 µM.
`CN(C(=O)C1(C(=O)C=[N+]=[N-])CC1)c1ccccc1`: the TGI in the assay with SK-MEL-2 melanoma, in the assay with K-562 leukemia, in the assay with SF-268 CNS, in the assay on HT29 colon, with COLO 205 colon and with UACC-257 melanoma was over 100 µM each time. Also, the TGI in the assay on HCC-2998 colon, with IGROV1 ovarian and in the assay on NCI-H23 lung was over 100 µM throughout.
`CCOC(=O)c1ccc2nc(NC(=O)COC(=O)CSc3nc(C)cc(C)n3)sc2c1`: the TGI in the assay with OVCAR-4 ovarian, in the assay with SK-MEL-2 melanoma, in the assay with K-562 leukemia, in the assay on SF-268 CNS, with HT29 colon and with COLO 205 colon was over 100 µM each time. Further, the TGI in the assay on UACC-257 melanoma, in the assay with IGROV1 ovarian and in the assay with NCI-H23 lung was over 100 µM each time.
`O=C(Nn1c(-c2ccccc2)nc2ccccc2c1=O)c1ccccn1`: the TGI with OVCAR-4 ovarian, in the assay on K-562 leukemia, in the assay on SF-268 CNS, with HT29 colon, in the assay with COLO 205 colon and in the assay on UACC-257 melanoma was over 100 µM in each case. For the same molecule, the TGI in the assay with HCC-2998 colon, in the assay with IGROV1 ovarian and in the assay with NCI-H23 lung was over 100 µM in each case.
Turning to `O=C1c2[nH]cc(CN3CCNCC3)c2C(=O)c2c1c(O)c1ccccc1c2O`, the GI50 in the assay with K-562 leukemia was 3.42 µM; with SF-268 CNS, 22.9 µM; with HT29 colon, 2.44 µM; with COLO 205 colon, 1.59 µM; with UACC-257 melanoma it was 4.47 µM; in the assay with HCC-2998 colon, 1.18 µM. The TGI with K-562 leukemia is over 100 µM; in the assay with SF-268 CNS it was 66.4 µM; with HT29 colon, over 100 µM; in the assay with COLO 205 colon it was 3.39 µM; in the assay with HCC-2998 colon it was 2.88 µM.
In the case of `COC(=O)C(/C(=N/NC(=O)c1ccncc1)C(=O)Nc1ccccc1OC)c1nc2ccc(Cl)cc2[nH]c1=O` (configuration not stated), the TGI in the assay with OVCAR-4 ovarian, with SK-MEL-2 melanoma, in the assay with K-562 leukemia, in the assay with SF-268 CNS, with HT29 colon and with UACC-257 melanoma was over 100 µM throughout. Moreover, the TGI in the assay on IGROV1 ovarian and with NCI-H23 lung was over 100 µM each time.
For `CCOC(=O)c1nc2c3c(ncn2n1)Oc1c(c(-c2ccccc2)nn1-c1ccccc1)C3c1ccc(Cl)cc1` (configuration not stated), the TGI in the assay with OVCAR-4 ovarian, with SK-MEL-2 melanoma, with K-562 leukemia, in the assay with SF-268 CNS, with HT29 colon and with COLO 205 colon was over 100 µM throughout. Moreover, the TGI in the assay with UACC-257 melanoma, with HCC-2998 colon and in the assay with NCI-H23 lung was over 100 µM throughout.
In the case of `COC(=O)C1=C(O)C(C(=O)OC)[C@@]2(O)[C@@H](C(=O)OC)C(c3ccc(OC(=O)/C(=C/c4ccc(Cl)cc4)c4ccc(Cl)cc4)cc3)C[C@@H]1[C@@H]2C(=O)OC` (some centres not stated), the TGI was over 100 µM with OVCAR-4 ovarian; 38.2 µM in the assay with SK-MEL-2 melanoma; over 100 µM in the assay with K-562 leukemia; over 100 µM in the assay on SF-268 CNS; over 100 µM with HT29 colon; 92.6 µM in the assay on COLO 205 colon. For the same molecule, the TGI with UACC-257 melanoma, in the assay with IGROV1 ovarian and in the assay on NCI-H23 lung was over 100 µM throughout.
As to `COc1ccc(C2(c3ccc(OC)cc3)OC(=O)c3cccc4cccc2c34)cc1`, the TGI is over 100 µM with OVCAR-4 ovarian; over 100 µM in the assay with SK-MEL-2 melanoma; over 100 µM in the assay with K-562 leukemia; over 100 µM with SF-268 CNS; 5.98 µM with HT29 colon; over 100 µM in the assay on UACC-257 melanoma. Also, the TGI in the assay with HCC-2998 colon was 37.5 µM; in the assay with IGROV1 ovarian it was over 100 µM; in the assay on NCI-H23 lung it was over 100 µM.
On to `O=C(c1ccc2ccccc2c1)C1S(=O)(=O)OCCOS1(=O)=O`, for which the TGI in the assay on OVCAR-4 ovarian, in the assay with SK-MEL-2 melanoma, in the assay on K-562 leukemia, in the assay on HT29 colon, in the assay on COLO 205 colon and in the assay on UACC-257 melanoma was over 100 µM each time. The TGI in the assay with HCC-2998 colon and with NCI-H23 lung was over 100 µM throughout.
As for `COc1cc2cc(C(=O)N3CC(CCl)c4c3cc(N)c3ccccc43)[nH]c2cc1OCCN(C)C` (configuration not stated), the TGI with SK-MEL-2 melanoma stood at 0.00726 µM; in the assay on K-562 leukemia it was 1.12 µM; with SF-268 CNS, 0.712 µM; with HT29 colon it was 5.17 µM; with COLO 205 colon it was 0.00971 µM; with UACC-257 melanoma it was 16.8 µM. For the same molecule, the figures for the TGI with HCC-2998 colon, in the assay with IGROV1 ovarian and in the assay on NCI-H23 lung were 0.535 µM, 0.00522 µM and 0.00833 µM, respectively.
As to `COc1cccc(NC(=O)CSc2nnc(-c3ccc(N=Cc4ccc(Cl)cc4)cc3)o2)c1`, the TGI with OVCAR-4 ovarian is over 100 µM; in the assay on SK-MEL-2 melanoma, 39.8 µM; in the assay on K-562 leukemia, over 100 µM; in the assay with SF-268 CNS, 46.3 µM; with HT29 colon, 29.8 µM; with COLO 205 colon, 41.4 µM. The same molecule displayed a TGI with NCI-H23 lung of 41.1 µM.
For the molecule `COc1ccc(C(O)c2ccc3c(c2)OCO3)cc1` (configuration not stated), the TGI in the assay on OVCAR-4 ovarian, with K-562 leukemia, in the assay on SF-268 CNS, in the assay on HT29 colon, in the assay with COLO 205 colon and in the assay on UACC-257 melanoma was over 100 µM each time. Also, the TGI with HCC-2998 colon, with IGROV1 ovarian and with NCI-H23 lung was over 100 µM in each case.
For the molecule `O=S1(=O)NNC(=NCc2ccc(Cl)cc2)c2ccccc21`, the TGI in the assay with OVCAR-4 ovarian, in the assay on SK-MEL-2 melanoma, in the assay with K-562 leukemia, with SF-268 CNS, in the assay with HT29 colon and in the assay on COLO 205 colon was over 100 µM throughout. Further, the TGI in the assay on UACC-257 melanoma, in the assay on HCC-2998 colon and with IGROV1 ovarian was over 100 µM each time.
